{"source": "patent US4010264A", "about": "“7-[3-Substituted isoxazol-5-yl]-acetamido-cephalosporanic acids and their anti-bacterial use” (Koninklijke Nederlandsche Gist-en Spiritusfabriek N.V., priority 1970, dated 1977)", "key": {"[1]": {"tested_on": "Bacillus subtilis ATCC 6633", "experiment": "MIC, agar serial dilution test", "assay_type": "cell-based", "settings": "ATCC6633; Bacillus subtilis ATCC 6633; 24 hours at 37° C; read-out: MIC"}, "[2]": {"tested_on": "Staphylococcus aureus A55", "experiment": "MIC, agar serial dilution test", "assay_type": "cell-based", "settings": "Staphylococcus aureus A55; 24 hours at 37° C; read-out: MIC"}, "[3]": {"tested_on": "Staphylococcus aureus A321", "experiment": "MIC, agar serial dilution test", "assay_type": "cell-based", "settings": "Staphylococcus aureus A321; 24 hours at 37° C; read-out: MIC"}, "[4]": {"tested_on": "Streptococcus haemolyticus A266", "experiment": "MIC, agar serial dilution test", "assay_type": "cell-based", "settings": "Streptococcus haemolyticus A266; 24 hours at 37° C; read-out: MIC"}, "[5]": {"tested_on": "Streptococcus faecalis L 80", "experiment": "MIC, agar serial dilution test", "assay_type": "cell-based", "settings": "Enterococcus faecalis, L80; Streptococcus faecalis L 80; 24 hours at 37° C; read-out: MIC"}, "[6]": {"tested_on": "Diplococcus pneumoniae L 54", "experiment": "MIC, agar serial dilution test", "assay_type": "cell-based", "settings": "Streptococcus pneumoniae, L54; Diplococcus pneumoniae L 54; 24 hours at 37° C; read-out: MIC"}, "[7]": {"tested_on": "Brucella melitensis A488", "experiment": "microbe, parasite or virus in culture", "assay_type": "cell-based", "settings": "A488, 24 h"}, "[8]": {"tested_on": "Pasteurella multocida A723", "experiment": "MIC, agar serial dilution test", "assay_type": "cell-based", "settings": "Pasteurella multocida A723; 24 hours at 37° C; read-out: MIC"}, "[9]": {"tested_on": "Klebsiella pneumoniae A809", "experiment": "MIC, agar serial dilution test", "assay_type": "cell-based", "settings": "Klebsiella pneumoniae A809; 24 hours at 37° C; read-out: MIC"}, "[10]": {"tested_on": "Staphylococcus aureus A 321", "experiment": "prophylactic experiment against an infection in mice", "assay_type": "in vivo, female mice (Swiss)", "text": "B. Activity of the compound of example III in a prophylactic experiment against an infection with Staphylococcus aureus A 321. […] Administered doses: Tested compound dissolved in physiological NaCl-solution. Group A: one dose administered four hours before the intraperitoneal infection Group B: one dose administered two hours before the intraperitoneal infection."}, "[11]": {"experiment": "in vivo", "parameters": "species or system rabbits", "settings": "rabbit, im, 50 mg/kg", "text": "C. Serum levels of the tested compound and dicloxacillin."}, "[12]": {"tested_on": "serum protein", "experiment": "binding to serum protein", "assay_type": "in vitro ADME", "settings": "serum protein"}, "[13]": {"tested_on": "Staphylococcus aureus A355 (penicillinase-producing)", "experiment": "MIC, agar serial dilution test", "settings": "24 h"}, "[14]": {"tested_on": "Staphylococcus aureus L160a (penicillinase-producing)", "experiment": "MIC, agar serial dilution test", "settings": "24 h"}, "[15]": {"tested_on": "Staphylococcus aureus A 321", "experiment": "in vivo infection test in mice", "settings": "A321, in Mus musculus"}, "[16]": {"tested_on": "Staphylococcus aureus A 2001", "experiment": "in vivo infection test in mice", "settings": "A2001, in Mus musculus"}, "[17]": {"tested_on": "Staphylococcus aureus A 2000", "experiment": "in vivo infection test in mice", "settings": "A2000, in Mus musculus"}}}
{"smiles": "Cc1onc(-c2c(Cl)cccc2Cl)c1C(=O)N[C@@H]1C(=O)N2[C@@H]1SC(C)(C)[C@@H]2C(=O)O", "note": "[Dicloxacillin, reference compound]", "values": [{"measurement": "MIC", "setting": "[1]", "result": 0.12, "unit": "µg/mL"}, {"measurement": "MIC", "setting": "[2]", "result": 0.06, "unit": "µg/mL"}, {"measurement": "MIC", "setting": "[3]", "result": 0.12, "unit": "µg/mL"}, {"measurement": "MIC", "setting": "[4]", "result": 0.06, "unit": "µg/mL"}, {"measurement": "MIC", "setting": "[5]", "result": 12.5, "unit": "µg/mL"}, {"measurement": "MIC", "setting": "[6]", "result": 0.5, "unit": "µg/mL"}, {"measurement": "MIC", "setting": "[7]", "result": "> 100", "unit": "µg/mL"}, {"measurement": "MIC", "setting": "[8]", "result": 6, "unit": "µg/mL"}, {"measurement": "MIC", "setting": "[9]", "result": 25, "unit": "µg/mL"}, {"measurement": "ED50", "setting": "[10]; A321, ip, 2 h, Group B: one dose two hours before i.p. infection, administration i.p.", "result": "46.5 to 100", "unit": "mg/kg"}, {"measurement": "ED50", "setting": "[10]; A321, ip, 4 h, Group A: one dose four hours before i.p. infection, administration i.p.", "result": "< 21.5", "unit": "mg/kg"}, {"measurement": "ED50", "setting": "[10]; A321, po, 2 h, Group B: one dose two hours before i.p. infection, administration per os", "result": "215 to 465", "unit": "mg/kg"}, {"measurement": "ED50", "setting": "[10]; A321, po, 4 h, Group A: one dose four hours before i.p. infection, administration per os", "result": "46.5 to 100", "unit": "mg/kg"}, {"measurement": "Cmax at 1 h", "setting": "[11]", "result": 27000, "unit": "ng/mL"}, {"measurement": "Tmax", "setting": "[11]", "result": 1, "unit": "h"}, {"measurement": "concentration at 1 h", "setting": "[11]", "result": 27000, "unit": "ng/mL"}, {"measurement": "concentration at 2 h", "setting": "[11]", "result": 18800, "unit": "ng/mL"}, {"measurement": "concentration at 4 h", "setting": "[11]", "result": 7100, "unit": "ng/mL"}, {"measurement": "blood level", "setting": "[11]; 4 h", "result": 7100, "unit": "ng/mL"}, {"measurement": "binding to serum protein (in words)", "setting": "[12]", "result": "almost completely bound to serum protein"}, {"measurement": "MIC", "setting": "[13]", "result": 0.5, "unit": "µg/mL"}, {"measurement": "MIC", "setting": "[14]", "result": 0.25, "unit": "µg/mL"}, {"measurement": "ED50", "setting": "[15]; po", "result": 92.6, "unit": "mg/kg"}, {"measurement": "ED50", "setting": "[15]; sc", "result": 126, "unit": "mg/kg"}, {"measurement": "ED50", "setting": "[16]; ip", "result": 1.71, "unit": "mg/kg"}, {"measurement": "ED50", "setting": "[16]; po", "result": 110, "unit": "mg/kg"}, {"measurement": "ED50", "setting": "[16]; sc", "result": 133, "unit": "mg/kg"}, {"measurement": "ED50", "setting": "[17]; ip", "result": 5.84, "unit": "mg/kg"}, {"measurement": "ED50", "setting": "[17]; po", "result": 92.6, "unit": "mg/kg"}, {"measurement": "ED50", "setting": "[17]; sc", "result": 92.6, "unit": "mg/kg"}]}
